Test results published in paper PMC4971072, “Chemically Homogenous Compounds with Antagonistic Properties at All α1-Adrenoceptor Subtypes but not β1-Adrenoceptor Attenuate Adrenaline-Induced Arrhythmia in Rats” (Frontiers in Pharmacology, 2016).
Structures can show the parent of a compound that is named as a salt. Marks after values point to notes of the source that are not given here.

Assays:
[1] = tested on: adrenaline-induced arrhythmia in rats; test: Prophylactic antiarrhythmic activity in adrenaline-induced arrhythmia; format: in vivo, rat
Procedure: The studied compounds were administered i.p. 45 min before the injection of adrenaline, calcium chloride, or barium chloride. The electrocardiogram (ECG) was recorded during the first 2 min as well as in the 5th, 10th, and 15th min after the arrhythmogen injection. […]

[2] = tested on: lipid peroxidation in rat brain homogenate; test: Lipid peroxidation in rat brain homogenate (TBARS), antioxidant effect; format: biochemical; details: 10^−3 M
Procedure: The rat brain homogenate containing 10 mg tissue/ml was prepared in 0.9% saline. The rates of membrane lipid peroxidation were measured by the formation of thiobarbituric acid reactive substances (TBARS). Rat brain homogenates (1 ml) were incubated at 37°C for 5 min with 10 μl of a tested compound or vehicle. Lipid peroxidation was initiated by the addition of 50 μl of 0.5 mM FeCl2 and 50 μl of 2.0 mM ascorbic acid. After 30 min of incubation, the reaction was stopped by adding 0.1 ml of 0.2% butylated hydroxytoluene (BHT). Thiobarbituric acid reagent was then added and the mixture was heated for 15 min in a boiling water bath.

α1B-adrenoceptors = molecular target: T1, α1B-adrenoceptors (Mus musculus, UniProt P97717); test: Functional bioassay, isolated mouse spleen, noradrenaline contraction; format: biochemical; details: noradrenaline as agonist
T1 construct: The spleen was removed from male mice; from tissue; host or cells: isolated mouse spleen
T1 sequence (P97717 1-514): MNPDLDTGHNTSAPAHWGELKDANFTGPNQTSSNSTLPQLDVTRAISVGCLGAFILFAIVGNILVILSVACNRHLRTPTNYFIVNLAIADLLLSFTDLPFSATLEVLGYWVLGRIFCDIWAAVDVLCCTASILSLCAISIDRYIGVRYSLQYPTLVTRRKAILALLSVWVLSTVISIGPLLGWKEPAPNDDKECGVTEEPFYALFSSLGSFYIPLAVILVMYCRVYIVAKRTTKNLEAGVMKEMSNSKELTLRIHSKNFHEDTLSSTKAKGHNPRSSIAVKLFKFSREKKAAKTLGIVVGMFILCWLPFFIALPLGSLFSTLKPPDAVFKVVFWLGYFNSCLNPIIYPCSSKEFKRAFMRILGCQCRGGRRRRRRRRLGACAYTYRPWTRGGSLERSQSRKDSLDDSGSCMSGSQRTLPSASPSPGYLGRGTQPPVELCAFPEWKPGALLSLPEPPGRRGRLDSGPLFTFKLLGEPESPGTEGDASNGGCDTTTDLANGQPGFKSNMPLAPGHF
Procedure: The influence on α1B-adrenoceptors was evaluated using the isolated mouse spleen. The spleen was removed from male mice right after killing the anesthetized animal by cervical dislocation. […] The initial optimal tissues tension was set at 1.0 g. Through the 100 min of equilibration tissues were stimulated with noradrenaline (0.1−10.0 μM) three times with washing out until the contractile response become constant. Two cumulative concentration-response curves to noradrenaline, at an interval of 60 min, were established on each tissue both in the presence and absence of antagonist. The incubation with antagonists went on for 30 min. The experiments were carried out in the constant presence of propranolol (1 μM) to block β-adrenoceptors, and minimize the involvement of these adrenoceptors in the response to noradrenaline.
Data are means ± S.E.M. of at least 4 separate experiments. To establish Hill slopes for the agonist concentration–response curves and calculate EC50 values, curves were fitted to all the data by non-linear regression. The EC50 value in the presence and absence of antagonists was used to ascertain the concentration ratio (CR). Schild analysis was performed.

β1-adrenergic receptor = molecular target: T2, β1-adrenergic receptor (Rattus norvegicus, UniProt P18090); test: β1-adrenoceptor radioligand binding assay ([3H]-CGP-12177, rat cerebral cortex); details: read-out: Adrenergic receptors Ki β1
T2 construct: The brains were homogenized in 20 volumes of an ice-cold 50 mM Tris-HCl buffer; from tissue; host or cells: rat cerebral cortex membranes
Procedure: The α1- and β1-adrenoceptor radioligand binding assay was performed on rat cerebral cortex. […] The cell pellet was resuspended in the Tris–HCl buffer and centrifuged again. Radioligand binding assays were performed in plates (MultiScreen/Millipore). […] The incubation was terminated by rapid filtration through glass fiber filters (Whatman GF/C) using a vacuum manifold (Millipore). The filters were then washed twice with the assay buffer and placed in scintillation vials with a liquid scintillation cocktail. […] All the assays were made in duplicate and the inhibitory constants (Ki) were estimated.
LO–labeled ligand concentration, KD–dissociation constant of labeled ligand

normal ECG in rats = test: The effect on normal electrocardiogram in rats; format: in vivo, rat; details: anesthetized rats
Procedure: The experiment was carried out to exclude the influence of tested compounds on normal ECG. […] The influence on QRS complex, PQ interval, heart rate (RR), and QTc interval was determined.

[3] = dose 0.1 mg/kg i.p. 45 min before adrenaline 20 μg/kg i.v.
[4] = dose 0.2 mg/kg i.p. 45 min before adrenaline 20 μg/kg i.v.
[5] = dose 0.3 mg/kg i.p. 45 min before adrenaline 20 μg/kg i.v.
[6] = i.p. at ED84, 0 min (initial values)

T2 sequence (P18090 whole entry): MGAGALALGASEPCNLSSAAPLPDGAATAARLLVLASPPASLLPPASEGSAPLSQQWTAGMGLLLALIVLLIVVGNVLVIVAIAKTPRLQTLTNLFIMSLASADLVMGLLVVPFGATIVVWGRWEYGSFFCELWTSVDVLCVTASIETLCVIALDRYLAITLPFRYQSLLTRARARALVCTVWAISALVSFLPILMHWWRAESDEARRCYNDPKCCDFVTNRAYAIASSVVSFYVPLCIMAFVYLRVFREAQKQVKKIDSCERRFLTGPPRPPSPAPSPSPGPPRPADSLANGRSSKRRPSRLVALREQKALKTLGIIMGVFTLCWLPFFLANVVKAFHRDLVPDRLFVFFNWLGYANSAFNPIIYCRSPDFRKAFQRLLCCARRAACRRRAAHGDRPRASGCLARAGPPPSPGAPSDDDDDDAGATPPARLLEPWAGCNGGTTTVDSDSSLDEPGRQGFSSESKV

With `COc1ccccc1N1CCN(CCCOc2cc(C)ccc2Cl)CC1` [HBK-16, 1N-[3-(2-chloro-5-methylphenoxy)propyl]-4N-(2-methoxyphenyl)piperazine hydrochloride] the ED50 ([1]; Rattus norvegicus, read-out: ED50 (confidence limits)) was 0.2 mg/kg, the “Bigeminy (%)” value [1, 3] was 33.3% and the “Blocks (%)” value [1, 3] was 50.0%. The “Bradycardia (%)” value [1, 3] was 66.7%, the “Extrasystoles (%)” value [1, 3] was 83.3% and the “Bigeminy (%)” value [1, 4] was 16.7%. For the same molecule, the “Blocks (%)” value [1, 4] was 33.3%, the “Bradycardia (%)” value [1, 4] was 50.0% and the “Extrasystoles (%)” value [1, 4] was 33.3%. For the same molecule, the “Blocks (%)” value [1, 5] was 16.7%, the “Bradycardia (%)” value [1, 5] was 33.3% and the “Extrasystoles (%)” value [1, 5] was 16.7%. For the same molecule, the “inhibition of lipid peroxidation (in words)” value [2] was “inhibited lipid peroxidation”, the “% reduction of absorbance (% antioxidant activity)” value ([2]; TBARs at 532 nm) was 16.63% and the Absorbance ([2]; TBARs at 532 nm) was 0.752 ± 0.007. For the same molecule, the “Schild slope ± S.E.M., α1B” value (α1B-adrenoceptors) was 1.03 ± 0.12, the Kb (α1B-adrenoceptors; read-out: pA2 ± S.E.M., α1B (converted)) was 6.17 nM and the Ki (β1-adrenergic receptor) was over 10000 nM. For the same molecule, the “influence on ECG parameters (PQ interval, QRS complex, QTc interval)” value (normal ECG in rats; i.p. at ED84) was “did not influence PQ interval, QRS complex or QTc interval”, the “reduction of heart rate” value (normal ECG in rats; i.p. at ED84, over the period of significant effect vs. initial values) was 11−13% and the “Beats/min (ECG)” value (normal ECG in rats; [6]) was 329.6 ± 9.8 Beats/min. For the same molecule, the “PQ (ECG)” value (normal ECG in rats; [6]) was 64.4 ± 1.1 ms, the “QRS (ECG)” value (normal ECG in rats; [6]) was 21.7 ± 2.2 ms and the “QT (ECG)” value (normal ECG in rats; [6]) was 51.4 ± 3.5 ms. For the same molecule, the “QTc (ECG, Bazett)” value (normal ECG in rats; [6]) was 120.5 ± 8.7 ms, the “Beats/min (ECG)” value (normal ECG in rats; i.p. at ED84, 5 min) was 331.4 ± 12.5 Beats/min and the “PQ (ECG)” value (normal ECG in rats; i.p. at ED84, 5 min) was 63.7 ± 1.1 ms. The “QRS (ECG)” value (normal ECG in rats; i.p. at ED84, 5 min) was 21.7 ± 2.2 ms, the “QT (ECG)” value (normal ECG in rats; i.p. at ED84, 5 min) was 51.2 ± 3.5 ms and the “QTc (ECG, Bazett)” value (normal ECG in rats; i.p. at ED84, 5 min) was 120.7 ± 9.7 ms. For the same molecule, the “Beats/min (ECG)” value (normal ECG in rats; i.p. at ED84, 10 min) was 330.1 ± 12.4 Beats/min, the “PQ (ECG)” value (normal ECG in rats; i.p. at ED84, 10 min) was 63.6 ± 0.9 ms and the “QRS (ECG)” value (normal ECG in rats; i.p. at ED84, 10 min) was 21.7 ± 2.2 ms. The “QT (ECG)” value (normal ECG in rats; i.p. at ED84, 10 min) was 51.2 ± 3.3 ms, the “QTc (ECG, Bazett)” value (normal ECG in rats; i.p. at ED84, 10 min) was 120.2 ± 8.8 ms and the “Beats/min (ECG)” value (normal ECG in rats; i.p. at ED84, 15 min) was 319.4 ± 10.3 Beats/min. The “PQ (ECG)” value (normal ECG in rats; i.p. at ED84, 15 min) was 63.9 ± 1.1 ms, the “QRS (ECG)” value (normal ECG in rats; i.p. at ED84, 15 min) was 21.7 ± 2.2 ms and the “QT (ECG)” value (normal ECG in rats; i.p. at ED84, 15 min) was 50.1 ± 3.6 ms. For the same molecule, the “QTc (ECG, Bazett)” value (normal ECG in rats; i.p. at ED84, 15 min) was 115.8 ± 9.6 ms, the “Beats/min (ECG)” value (normal ECG in rats; i.p. at ED84, 20 min) was 310.6 ± 9.8 Beats/min and the “PQ (ECG)” value (normal ECG in rats; i.p. at ED84, 20 min) was 65.1 ± 1.2 ms. For the same molecule, the “QRS (ECG)” value (normal ECG in rats; i.p. at ED84, 20 min) was 21.7 ± 2.2 ms, the “QT (ECG)” value (normal ECG in rats; i.p. at ED84, 20 min) was 51.4 ± 3.1 ms and the “QTc (ECG, Bazett)” value (normal ECG in rats; i.p. at ED84, 20 min) was 117.3 ± 8.7 ms. The “Beats/min (ECG)” value (normal ECG in rats; i.p. at ED84, 30 min) was 302.8 ± 11.0 Beats/min, the “PQ (ECG)” value (normal ECG in rats; i.p. at ED84, 30 min) was 64.4 ± 1.1 ms and the “QRS (ECG)” value (normal ECG in rats; i.p. at ED84, 30 min) was 21.7 ± 2.2 ms. For the same molecule, the “QT (ECG)” value (normal ECG in rats; i.p. at ED84, 30 min) was 52.7 ± 3.7 ms, the “QTc (ECG, Bazett)” value (normal ECG in rats; i.p. at ED84, 30 min) was 119.0 ± 10.3 ms and the “Beats/min (ECG)” value (normal ECG in rats; i.p. at ED84, 40 min) was 294.1 ± 12.2^a Beats/min. The “PQ (ECG)” value (normal ECG in rats; i.p. at ED84, 40 min) was 65.9 ± 0.8 ms, the “QRS (ECG)” value (normal ECG in rats; i.p. at ED84, 40 min) was 21.7 ± 2.2 ms and the “QT (ECG)” value (normal ECG in rats; i.p. at ED84, 40 min) was 53.5 ± 2.8 ms. The “QTc (ECG, Bazett)” value (normal ECG in rats; i.p. at ED84, 40 min) was 118.9 ± 8.4 ms, the “Beats/min (ECG)” value (normal ECG in rats; i.p. at ED84, 50 min) was 291.4 ± 13.0^b Beats/min and the “PQ (ECG)” value (normal ECG in rats; i.p. at ED84, 50 min) was 67.3 ± 1.6 ms. The “QRS (ECG)” value (normal ECG in rats; i.p. at ED84, 50 min) was 22.0 ± 2.1 ms, the “QT (ECG)” value (normal ECG in rats; i.p. at ED84, 50 min) was 54.7 ± 2.8 ms and the “QTc (ECG, Bazett)” value (normal ECG in rats; i.p. at ED84, 50 min) was 121.1 ± 8.7 ms. The “Beats/min (ECG)” value (normal ECG in rats; i.p. at ED84, 60 min) was 288.0 ± 13.8^b Beats/min, the “PQ (ECG)” value (normal ECG in rats; i.p. at ED84, 60 min) was 68.2 ± 0.9 ms and the “QRS (ECG)” value (normal ECG in rats; i.p. at ED84, 60 min) was 22.3 ± 2.0 ms. For the same molecule, the “QT (ECG)” value (normal ECG in rats; i.p. at ED84, 60 min) was 55.5 ± 2.4 ms and the “QTc (ECG, Bazett)” value (normal ECG in rats; i.p. at ED84, 60 min) was 122.0 ± 7.7 ms.
